What all share (assay type): cell-based
The subject of assay [1] is pChk1^Ser345 in MCF7 cells. The assay is described as follows: UV induced phosphorylation of Chk1 in MCF7 cells over time, immunofluorescence. The following applies: 20 J/m^2 UV. The protocol: (§1) Coverslips were sterilised in methanol and placed in the bottom of a 6-well culture dish. 2×10^5 MCF7 cells were seeded into each well of a 6-well culture dish in culture medium (RPMI-1640 with 10% FBS and 1% penicillin and streptomycin) and allowed to adhere for 24 hours. […] Cells were exposed to 20 J/m^2 UV using a […]-2400' (Stratagene). Cells were incubated at 37° C. for 0.5, 1 and 3 hours at which points they were washed with 2 mls PBS and fixed. Cells were fixed using 4% (w/v) paraformaldehyde for 20 minutes at room temperature and permeablised using 0.5% (v/v) Triton-X-100 for 30 minutes at room temperature. […] These were detected using the appropriate secondary antibodies diluted in 1% (w/v) BSA in PBS for 1 hour at room temperature protected from light: anti-rabbit AlexaFluor 546 (Invitrogen, 1:1000) or anti-mouse AlexaFluor 546 (Invitrogen, 1:1000). Coverslips were washed three times for 10 minutes in PBS after incubation with each antibody. DNA was stained using […] with DAPI (Vector Laboratories). Images were captured using a Zeiss LSM 700 confocal microscope (Zeiss) with Zen 2009 software (Zeiss) using and ×40 lens and wavelengths of 405 nm and 561 nm. Mean nuclear fluorescence for at least 50 nuclei was measured using Image) software (National Institutes of Health, USA) and the data analysed using GraphPad Prism software version 6.0.

The test system of assay [2] is γH2AX in MCF7 cells. Nature of the assay: UV induced phosphorylation of H2AX in MCF7 cells over time, immunofluorescence. The following applies: 20 J/m^2 UV. The protocol: as §1
In assay [3] the test system is γH2AX in MCF7 cells. Nature of the assay: 4-nitroquinoline induced phosphorylation of H2AX in MCF7 cells over time, immunofluorescence. The following applies: Homo sapiens, 2.5 μM 4-nitroquinoline. The procedure: (§2) Coverslips were sterilised in methanol and placed in the bottom of a 6-well culture dish. 2×10^5 MCF7 cells were seeded into each well of a 6-well culture dish in culture medium (RPMI-1640 with 10% FBS and 1% penicillin and streptomycin) and allowed to adhere for 24 hours. […] Cells were incubated at 37° C. for 0.5, 1 and 3 hours at which points they were washed with 2 mls PBS and fixed. Cells were fixed using 4% (w/v) paraformaldehyde for 20 minutes at room temperature and permeablised using 0.5% (v/v) Triton-X-100 for 30 minutes at room temperature. […] These were detected using the appropriate secondary antibodies diluted in 1% (w/v) BSA in PBS for 1 hour at room temperature protected from light: anti-rabbit AlexaFluor 546 (Invitrogen, 1:1000) or anti-mouse AlexaFluor 546 (Invitrogen, 1:1000). Coverslips were washed three times for 10 minutes in PBS after incubation with each antibody. DNA was stained using […] with DAPI (Vector Laboratories). Images were captured using a Zeiss LSM 700 confocal microscope (Zeiss) with Zen 2009 software (Zeiss) using and ×40 lens and wavelengths of 405 nm and 561 nm. Mean nuclear fluorescence for at least 50 nuclei was measured using Image) software (National Institutes of Health, USA) and the data analysed using GraphPad Prism software version 6.0.

Assay [4] concerns the target T1, ATR (Homo sapiens, UniProt Q13535).
T1 construct: PBMCs were purified from fresh whole human blood; endogenous in cells; host or cells: human PBMCs / lymphocytes from fresh whole blood of healthy volunteers
Nature of the assay: ATR inhibition in purified PBMCs from human whole blood after DNA damaging agents, immunofluorescence. The following applies: UV or 4-nitroquinoline, 10 μM VE-821.
Description: Blood from healthy volunteers was collected by venepuncture into EDTA-coated blood collection tubes. 2×10 ml aliquots of blood was diluted 1:1 in PBS and transferred into 50 ml falcon tubes containing 10 mls FICOLL-PAQUE PLUS™ (GE Healthcare). PBMCs were separated using centrifugation through a FICOLL-PAQUE PLUS™ separation gradient. PBMCs from each tube were collected separately and washed twice with 20 mls PBS before being pooled and resuspended in 20 mls culture medium (RPMI-1640 with 10% FBS). 2 mls of PBMC suspension per treatment were transferred into one well of a 6-well culture dish. […] PBMCs were collected using centrifugation, washed in 1 ml PBS then resuspended in 1 ml PBS before being counted using a haemocytometer. 1×10^5 PBMCs were centrifuged onto microscope slides using a CYTOSPIN 2™ centrifuge (Shandon) for 5 minutes at 450 rpm. […] These were detected using the appropriate secondary antibodies diluted in 1% (w/v) BSA in PBS for 1 hour at room temperature protected from the light: anti-rabbit AlexaFluor 488 (Invitrogen, 1:1000) and anti-mouse AlexaFluor 546 (Invitrogen, 1:1000). […] Mean nuclear fluorescence for at least 50 nuclei was measured using ImageJ software (National Institutes of Health, USA) and the data analysed using GraphPad Prism software version 6.0.

Assay [5] concerns the target T1, ATR. Nature of the assay: ATR inhibition in PBMCs after treatment of human whole blood with UV, immunofluorescence. The following applies: 50 J/m^2 UV, 10 μM VE-821.
Description: Blood from healthy volunteers was collected by venepuncture into EDTA-coated blood collection tubes. […] Following 1 hour incubation at 37° C. and 5% CO2, blood was exposed to 50 J/m^2 UV light. Following 1 hour further incubation the blood mixture was transferred into 15 ml falcon tubes containing 2 mls FICOLL-PAQUE PLUS™ and the PBMCs separated using centrifugation through a FICOLL-PAQUE PLUS™ separation gradient. PBMCs were collected and washed twice using 10 mls PBS and resuspended in 1 ml PBS. PBMCs were counted using a haemocytometer and 1×10^5 PBMCs were centrifuged onto microscope slides using a CYTOSPIN 2™ centrifuge (Shandon) for 5 minutes at 450 rpm. Cells were fixed using 4% (w/v) paraformaldehyde for 20 minutes and permeablised using 0.5% (v/v) Triton-X-100 for 30 minutes. […] These were detected using the appropriate secondary antibodies diluted in 1% (w/v) BSA in PBS for 1 hour at room temperature protected from the light: anti-rabbit AlexaFluor 488 (Invitrogen, 1:1000) and anti-mouse AlexaFluor 546 (Invitrogen, 1:1000). […] Mean nuclear fluorescence for at least 50 nuclei was measured using Image) software (National Institutes of Health, USA) and the data analysed using GraphPad Prism software version 6.0.
For assay [6], the system named is pChk1^Ser345 in MCF7 cells. Nature of the assay: 4-nitroquinoline induced phosphorylation of Chk1 in MCF7 cells over time, immunofluorescence. To be noted: Homo sapiens, 2.5 μM 4-nitroquinoline, 10 μM VE-821, for up to 3 hr. The protocol: as §2
For assay [7], the system named is pChk1^Ser345 and γH2AX in MCF7 cells. The assay is described as follows: Evaluation of optimal 4-nitroquinoline concentration in MCF7 cells, immunofluorescence. The following applies: 0.1-10 μM 4-nitroquinoline, 2 hours. The protocol:
Coverslips were sterilised in methanol and placed in the bottom of a 6-well culture dish. 2×10^5 MCF7 cells were seeded into each well of a 6-well culture dish in culture medium (RPMI-1640 with 10% FBS and 1% penicillin and streptomycin) and allowed to adhere for 24 hours. Medium was replaced by fresh medium containing 4-nitroquinoline (0.1-10 μM) and incubated at 37° C. for 2 hours. Cells were washed in PBS, fixed using 4% (w/v) paraformaldehyde for 20 minutes at room temperature and permeablised using 0.5% (v/v) Triton-X-100 for 30 minutes at room temperature. Permeablised cells were blocked using 10% (v/v) goat serum and 5% (w/v) BSA in PBS for 1 hour, the coverslips removed and subjected to immunofluorescent analysis using primary antibodies diluted in 1% (w/v) BSA in PBS overnight at 4° C.: rabbit anti-pChk1^Ser345 (133D3, Cell Signaling Technology, 1:300) and mouse anti-phospho-Histone H2AX^Ser139 (JBW301, Millipore, 1:1000). These were detected using the appropriate secondary antibodies diluted in 1% (w/v) BSA in PBS for 1 hour at room temperature protected from light: anti-rabbit AlexaFluor 546 (Invitrogen, 1:1000) and anti-mouse AlexaFluor 546 (Invitrogen, 1:1000). […] Mean nuclear fluorescence for at least 50 nuclei was measured using Image) software (National Institutes of Health, USA) and the data analysed using GraphPad Prism software version 6.0.

The subject of assay [8] is pChk1^Ser345 and γH2AX in PBMCs. Nature of the assay: Evaluation of optimal 4-nitroquinoline concentration in PBMCs from treated human whole blood, immunofluorescence. The following applies: 240 μM 4-nitroquinoline, 2 hours. The procedure: Blood from healthy volunteers was collected by venepuncture into EDTA-coated blood collection tubes. 2 mls of blood per treatment was transferred into 1 well of a 6-well plates already containing 2 mls PBS containing 2% (v/v) FBS and DMSO or 4-nitroquinoline (60, 120, 240, 480 μM final concentration). Following 2 hours incubation at 37° C. the blood mixture was transferred into 15 ml falcon tubes containing 2 mls FICOLL-PAQUE PLUS™ and the PBMCs separated using centrifugation through a FICOLL-PAQUE PLUS™ separation gradient. PBMCs were collected and washed twice using 10 mls PBS and resuspended in 1 ml PBS. PBMCs were counted using a haemocytometer and 1×10^5 PBMCs were centrifuged onto microscope slides using a CYTOSPIN 2™ centrifuge (Shandon) for 5 minutes at 450 rpm. Cells were fixed using 4% (w/v) paraformaldehyde for 20 minutes and permeablised using 0.5% (v/v) Triton-X-100 for 30 minutes. […] These were detected using the appropriate secondary antibodies diluted in 1% (w/v) BSA in PBS: anti-rabbit AlexaFluor 546 (Invitrogen, 1:1000) and anti-mouse AlexaFluor 546 (Invitrogen, 1:1000). […] Mean nuclear fluorescence for at least 50 nuclei was measured using Image) software (National Institutes of Health, USA) and the data analysed using GraphPad Prism software version 6.0.

Assay [9] deals with ATR-dependent phosphorylation events. Nature of the assay: 4-nitroquinoline induction of ATR-dependent phosphorylation events in cell lines and isolated PBMCs. The protocol: PBMCs were purified from fresh whole human blood using FICOLL-PAQUE™ density gradient centrifugation. Cells were counted and seeded at 5×10(5) per well in a round bottom 96 well plate in RPMI medium supplemented with 10% foetal calf serum (FCS) and penicillin/streptomycin/glutamine (PSQ). […] Washed cells were then fixed with 4% paraformaldehyde for 10 min, permeabilised with 0.5% Triton X-100 for 10 min and analysed for Histone H2AX S139 phosphorylation by flow cytometry on the using 1:200 diluted anti-γH2AX primary antibody clone JBW301 (Millipore), 1:500 goat anti-mouse Alexa Fluor488 (Invitrogen) and propidium iodide DNA staining.
Blood from healthy volunteers was collected by venepuncture into EDTA-coated blood collection tubes. […] PBMCs were collected using centrifugation, washed in 1 ml PBS then resuspended in 1 ml PBS before being counted using a haemocytometer. […] These were detected using the appropriate secondary antibodies diluted in 1% (w/v) BSA in PBS for 1 hour at room temperature protected from the light: anti-rabbit AlexaFluor 488 (Invitrogen, 1:1000) and anti-mouse AlexaFluor 546 (Invitrogen, 1:1000). […] Mean nuclear fluorescence for at least 50 nuclei was measured using ImageJ software (National Institutes of Health, USA) and the data analysed using GraphPad Prism software version 6.0. […]

Assay [10] concerns the target T2, ATR (Mus musculus, UniProt Q9JKK8).
T2 construct: Whole human or mouse blood was collected in heparinised tubes; endogenous in cells; host or cells: lymphocytes in whole mouse blood ex vivo
Nature of the assay: ATR inhibition in whole mouse blood ex vivo: 4-nitroquinoline stimulated H2AX phosphorylation in lymphocytes, flow cytometry. In general terms: In flow cytometry, cells or beads pass a laser one at a time.
Description: The samples were mixed by agitation, incubated for 10 min at 37° C. and stimulated with 62 uM (human) or 124 uM (mouse) 4-nitroquinoline for 1 h at 37° C. The samples were then fixed and red blood cells were lysed using Lyse/Fix Buffer (BD) for 5-10 min and white blood cells were collected by centrifugation according to the manufacturer's instructions. The samples were then transferred into 96 well round bottom plates and permeabilised using Triton X-100 according to method i). H2AX phosphorylation was then analysed by flow cytometry according to method i) with selection of lymphocytes using either standard scatterplot gating or CD3 staining. For specific analysis of H2AX phosphorylation in CD3 positive lymphocytes, cells were stained with 1:2.5 diluted PE-conjugated anti-human CD3 (BD) (human) and 1:50 diluted APC-conjugated anti-mouse CD3 (BD) (mouse) in place of propidium iodide and analyses of P-H2AX were performed on the CD3-positive population.

The target in assay [11] is T1, ATR. Nature of the assay: ATR inhibition in PBMCs after treatment of human whole blood with 4-nitroquinoline, immunofluorescence. To be noted: 240 μM 4-nitroquinoline 1 and 2 hr, 1 or 10 μM compound.
Description: Blood from healthy volunteers was collected by venepuncture into EDTA-coated blood collection tubes. […] Following 1 or 2 hours incubation (as indicated) at 37° C. the blood mixture was transferred into 15 ml falcon tubes containing 2 mls FICOLL-PAQUE PLUS™ and the PBMCs separated using centrifugation through a FICOLL-PAQUE PLUS™ separation gradient. PBMCs were collected and washed twice using 10 mls PBS and resuspended in 1 ml PBS. PBMCs were counted using a haemocytometer and 1×10^5 PBMCs were centrifuged onto microscope slides using a CYTOSPIN 2™ centrifuge (Shandon) for 5 minutes at 450 rpm. Cells were fixed using 4% (w/v) paraformaldehyde for 20 minutes and permeablised using 0.5% (v/v) Triton-X-100 for 30 minutes. […] These were detected using the appropriate secondary antibodies diluted in 1% (w/v) BSA in PBS: anti-rabbit AlexaFluor 546 (Invitrogen, 1:1000) and anti-mouse AlexaFluor 546 (Invitrogen, 1:1000). […] Mean nuclear fluorescence for at least 50 nuclei was measured using Image) software (National Institutes of Health, USA) and the data analysed using GraphPad Prism software version 6.0.

The structures appear in SMILES notation.

T1 sequence (Q13535 whole entry): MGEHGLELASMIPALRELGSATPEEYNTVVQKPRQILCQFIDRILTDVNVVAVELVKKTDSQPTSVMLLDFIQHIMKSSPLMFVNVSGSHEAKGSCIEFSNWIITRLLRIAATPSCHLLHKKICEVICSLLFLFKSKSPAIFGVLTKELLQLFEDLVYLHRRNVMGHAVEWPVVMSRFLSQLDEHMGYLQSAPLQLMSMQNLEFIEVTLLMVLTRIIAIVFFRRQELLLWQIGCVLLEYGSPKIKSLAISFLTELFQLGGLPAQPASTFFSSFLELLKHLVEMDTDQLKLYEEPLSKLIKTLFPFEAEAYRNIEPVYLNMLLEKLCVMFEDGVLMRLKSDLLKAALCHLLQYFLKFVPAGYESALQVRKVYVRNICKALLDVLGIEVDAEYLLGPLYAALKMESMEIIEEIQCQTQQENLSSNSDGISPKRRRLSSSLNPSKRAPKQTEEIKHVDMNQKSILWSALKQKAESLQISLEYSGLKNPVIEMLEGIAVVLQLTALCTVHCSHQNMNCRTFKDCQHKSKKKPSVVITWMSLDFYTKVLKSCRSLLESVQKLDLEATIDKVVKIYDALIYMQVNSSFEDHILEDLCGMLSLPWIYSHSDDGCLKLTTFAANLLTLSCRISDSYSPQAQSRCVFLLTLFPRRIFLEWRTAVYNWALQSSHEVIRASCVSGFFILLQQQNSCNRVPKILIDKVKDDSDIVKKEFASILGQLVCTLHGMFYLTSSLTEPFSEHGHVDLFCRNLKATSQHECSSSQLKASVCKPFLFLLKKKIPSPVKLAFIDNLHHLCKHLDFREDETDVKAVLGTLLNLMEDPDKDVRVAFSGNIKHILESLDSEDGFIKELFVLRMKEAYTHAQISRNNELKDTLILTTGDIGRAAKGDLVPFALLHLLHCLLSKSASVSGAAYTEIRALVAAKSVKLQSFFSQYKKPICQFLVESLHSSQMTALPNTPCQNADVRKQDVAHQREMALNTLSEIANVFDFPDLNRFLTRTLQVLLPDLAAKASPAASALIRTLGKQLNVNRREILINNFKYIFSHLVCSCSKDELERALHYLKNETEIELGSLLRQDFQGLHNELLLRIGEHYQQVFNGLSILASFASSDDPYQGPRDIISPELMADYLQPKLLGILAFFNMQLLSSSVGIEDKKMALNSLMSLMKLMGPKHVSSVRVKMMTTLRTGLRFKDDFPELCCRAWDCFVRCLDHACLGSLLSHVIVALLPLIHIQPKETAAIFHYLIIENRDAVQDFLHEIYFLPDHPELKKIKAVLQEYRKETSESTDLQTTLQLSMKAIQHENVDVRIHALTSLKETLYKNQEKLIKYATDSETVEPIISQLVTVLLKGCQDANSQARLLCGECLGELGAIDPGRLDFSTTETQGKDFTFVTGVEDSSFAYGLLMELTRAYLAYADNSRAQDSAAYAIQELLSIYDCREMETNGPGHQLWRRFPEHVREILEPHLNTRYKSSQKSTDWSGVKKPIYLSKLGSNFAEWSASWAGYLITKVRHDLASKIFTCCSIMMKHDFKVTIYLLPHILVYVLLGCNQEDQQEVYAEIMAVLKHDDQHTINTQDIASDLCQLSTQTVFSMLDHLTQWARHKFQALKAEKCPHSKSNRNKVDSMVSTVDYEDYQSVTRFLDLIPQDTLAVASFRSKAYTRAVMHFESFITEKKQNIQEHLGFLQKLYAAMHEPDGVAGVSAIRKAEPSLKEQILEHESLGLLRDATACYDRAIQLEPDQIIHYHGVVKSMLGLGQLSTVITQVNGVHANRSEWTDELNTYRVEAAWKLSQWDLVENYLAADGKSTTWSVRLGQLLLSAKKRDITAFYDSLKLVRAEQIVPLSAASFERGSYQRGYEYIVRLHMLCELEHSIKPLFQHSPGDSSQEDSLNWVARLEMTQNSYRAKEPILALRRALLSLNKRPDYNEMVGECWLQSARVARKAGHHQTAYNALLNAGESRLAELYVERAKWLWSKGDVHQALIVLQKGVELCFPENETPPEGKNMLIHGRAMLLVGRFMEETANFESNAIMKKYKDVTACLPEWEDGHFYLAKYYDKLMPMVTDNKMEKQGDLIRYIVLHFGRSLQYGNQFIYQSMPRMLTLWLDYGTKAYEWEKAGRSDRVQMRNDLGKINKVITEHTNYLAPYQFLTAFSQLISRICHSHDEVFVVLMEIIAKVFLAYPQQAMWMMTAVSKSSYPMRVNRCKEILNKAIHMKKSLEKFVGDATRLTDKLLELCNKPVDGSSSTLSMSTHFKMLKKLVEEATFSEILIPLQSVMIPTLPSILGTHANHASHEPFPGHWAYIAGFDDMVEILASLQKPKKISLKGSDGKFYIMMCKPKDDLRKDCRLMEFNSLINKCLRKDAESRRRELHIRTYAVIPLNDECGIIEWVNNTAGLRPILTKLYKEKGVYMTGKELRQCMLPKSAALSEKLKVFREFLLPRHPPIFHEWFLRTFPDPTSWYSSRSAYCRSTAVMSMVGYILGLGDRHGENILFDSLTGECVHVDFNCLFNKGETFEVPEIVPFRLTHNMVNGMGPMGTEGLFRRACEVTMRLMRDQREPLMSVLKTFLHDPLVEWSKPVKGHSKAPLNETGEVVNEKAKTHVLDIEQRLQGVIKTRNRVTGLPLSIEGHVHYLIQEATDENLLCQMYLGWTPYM
T1 sequence (Q8WXE1 whole entry partner): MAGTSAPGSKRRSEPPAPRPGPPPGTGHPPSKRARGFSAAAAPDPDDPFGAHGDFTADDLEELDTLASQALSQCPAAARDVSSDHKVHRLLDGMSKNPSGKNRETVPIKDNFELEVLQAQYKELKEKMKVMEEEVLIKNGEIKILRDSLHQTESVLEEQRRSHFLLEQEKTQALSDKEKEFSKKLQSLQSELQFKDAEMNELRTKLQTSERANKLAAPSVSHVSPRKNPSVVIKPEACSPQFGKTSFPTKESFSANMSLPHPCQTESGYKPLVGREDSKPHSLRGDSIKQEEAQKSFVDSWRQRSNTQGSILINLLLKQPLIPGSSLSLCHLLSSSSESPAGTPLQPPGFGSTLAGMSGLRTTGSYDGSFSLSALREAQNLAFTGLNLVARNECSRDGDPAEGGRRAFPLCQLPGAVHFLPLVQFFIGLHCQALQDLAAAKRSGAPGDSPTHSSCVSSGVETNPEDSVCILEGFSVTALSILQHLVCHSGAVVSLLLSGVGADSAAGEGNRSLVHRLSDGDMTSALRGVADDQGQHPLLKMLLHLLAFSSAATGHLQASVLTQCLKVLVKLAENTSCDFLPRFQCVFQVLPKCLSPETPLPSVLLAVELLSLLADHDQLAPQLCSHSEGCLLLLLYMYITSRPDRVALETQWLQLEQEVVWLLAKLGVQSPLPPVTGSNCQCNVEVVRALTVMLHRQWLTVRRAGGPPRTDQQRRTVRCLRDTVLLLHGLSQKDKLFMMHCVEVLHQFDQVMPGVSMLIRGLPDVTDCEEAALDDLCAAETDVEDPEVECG

On to `CS(=O)(=O)c1ccc(-c2cnc(N)c(C(=O)Nc3ccccc3)n2)cc1` [VE-821], for which the “inhibition (of UV-induced Chk1 phosphorylation)” value in assay [1] (at 0.5 hr) worked out at 70%; in assay [1] (at 3 hr), 55%. Moreover, the “inhibition of γH2AX” value was 80% in the assay with γH2AX in MCF7 cells [2] (at 0.5 hr) and < 20% with γH2AX in MCF7 cells [2] (at 3 hr). For the same compound, the inhibition at 10 µM with γH2AX in MCF7 cells [3] (10 μM VE-821, at 1 hr) is 70%; with γH2AX in MCF7 cells [3] (10 μM VE-821, at 3 hr), 40%; in assay [6], > 70%. In addition, at ATR [4], the “level of pChk1^Ser345 signal after co-administering compound” value is “reduction”. On ATR [4], the “level of γH2AX signal after co-administering compound” value is given as “reduction”. At ATR [5], the “inhibition of UV-induced pChk1^Ser345” value was “significant inhibition”. Further, the “inhibition of UV-induced γH2AX” value against ATR [5] was “significant inhibition”.

In the case of `O=[N+]([O-])c1ccnc2ccccc12` [4-nitroquinoline], the “concentration required for pChk1^Ser345 and γH2AX induction compared with whole blood” value in assay [7] is reported as “lower concentrations were required”. The “phosphorylation of pChk1^Ser345 and γH2AX (biomarker induction)” value in [8] is listed as “improved phosphorylation”. Besides, in assay [9], the “concentration adequate to induce ATR-dependent phosphorylation events” value is ≤ 5 µM.

In the case of `CNCc1ccc(-c2cc(-c3nc(-c4ccc(S(=O)(=O)C(C)C)cc4)cnc3N)on2)cc1` [VE-822], on ATR [10], the midpoint of inhibition, the IC50, lay at 1000 nM. Further, on ATR [11], the “inhibition of 4-nitroquinoline-induced increases in γH2AX” value is reported as “inhibited by VE-822 in a concentration-dependent manner”.

A word on the inhibition: it is the share of the control response that was lost under treatment. The term IC50 denotes the concentration that gives 50% inhibition.

The record behind these values is US9791456B2, “Method for measuring ATR inhibition mediated increases in DNA damage” (Vertex Pharmaceuticals Incorporated, priority 2012, dated 2017).
